From patent US20210308110A1, “ANTIVIRAL COMPOUNDS AND METHOD FOR TREATING RNA VIRAL INFECTION, PARTICULARLY COVID-19” (Senhwa Biosciences, Inc., priority 2020, published 2021) come the findings set out here.

The IC50 is the concentration needed to halve the response being measured.

The subject of series [1] is SARS-CoV-2. The series is described as follows: SARS-CoV-2 plaque reduction neutralization test, plaque formation. It is filed as cell-based. Conditions: at 1.25 μM. For orientation: Plaques are areas of infected cells; plaque reduction assays count them against a control.
The subject of series [2] is SARS-CoV-2. Description: SARS-CoV-2 infection of Vero E6 cells, quantified by N protein expression (IFA / PRNT). It is filed as cell-based. Conditions: Severe acute respiratory syndrome coronavirus 2, Vero C1008, Vero E6 cells pretreated 20 hr, infected at MOI=0.01 for 2 days, read-out: IC50 (anti-SARS-CoV-2 activity).
Series [3] in a line: Cell viability test by Cell Counting Kit-8 (CCK-8). Conditions: African green monkey.
For series [4], the system named is SARS-CoV-2. The series is described as follows: Mouse challenge with SARS-CoV-2, lung histopathology scoring. Format: in vivo, AAV/hACE2 C57BL/6 mice. Conditions: 50 mg/kg I.P., AAV/hACE2 mice, day 5 post-SARS-CoV-2 infection; score scale 0-5; 2 out of 5.
A short description of the next series: in vitro. Conditions: African green monkey.

Take `CC(N)C(=O)OCN1C(=O)N/C(=C\c2cnn3c(NC4CC4)cc(Nc4cc(Cl)ccc4F)nc23)C1=O` (stereo not drawn) [Compound C]: the “reduction of plaque formation” value in the series on SARS-CoV-2 [1] turned out to be 75%. Also, the IC50 in the series with SARS-CoV-2 [2] is 97 nM. The compound also came in with a CC50 in series [3] of 4220 nM.
Regarding `O=C(O)c1ccc2c(c1)nc(Nc1cccc(Cl)c1)c1ccncc12` [Compound A, Silmitasertib], in the series with SARS-CoV-2 [1], the “reduction of plaque formation” value is listed as 75%. Further, the IC50 with SARS-CoV-2 [2] was 2740 nM. The CC50 in series [3] is more than 5000 nM. Also, in the series with SARS-CoV-2 [4], the “clinical score of lung histopathology” value is “less than 2”.
As for `O=C1NC(=O)/C(=C/c2cnn3c(NC4CC4)cc(Nc4cc(Cl)ccc4F)nc23)N1` [Compound B], the “reduction of plaque formation” value in the series with SARS-CoV-2 [1] amounted to 75%. Further, the IC50 in the series on SARS-CoV-2 [2] worked out at 126 nM. Further, the CC50 in series [3] is 5900 nM.
For the compound `CCC(CC)COC(=O)[C@H](C)N[P@](=O)(OC[C@H]1O[C@@](C#N)(c2ccc3c(N)ncnn23)[C@H](O)[C@@H]1O)Oc1ccccc1` [Compound E, Remdesivir, reference compound], the CC50 in “in vitro” is more than 5000 nM. Also, the IC50 with SARS-CoV-2 [2] amounted to 830 nM.
